Results published in patent US20040236125A1, “Novel structures and compositions comprising sterols and/or stanols and specific classes of anti-inflammatory agents and use thereof in treating or preventing cardiovascular disease, its underlying conditions including hyperlipidemia and other disorders having inflammation as part of their …” (FORBES MEDI-TECH INC., priority 2002, published 2004).
Read-outs that look alike come from different tables or passages of the source.

How the values were obtained:
COX-2 = COX-2 (Ovis aries, UniProt P79208); conditions: 4.5 μM, n=3
Protocol: (§1) In summary, FDC-2-4 was treated with a 1:1 ratio of porcine pancreatic lipase and colipase (PL/C). Inhibition of cyclooxygenase was determined using a colorimetric (ovine) COX inhibitor screening assay. The conversion of arachidonic acid to prostaglandin H2 was monitored by a colorimetric reaction. […] Reaction was initiated by adding 100-μM arachidonic acid and 100-μM tetramethyl-p-phenylenediamine (TMPD—the colourimetric substrate). The optical density of the colored product was determined at 620 nm. Acetylsalicylate was used as a positive control in all experiments.
(§2) The solution was vortexed for 2 min. and sonicated for 5 min. before adding 2.5 mg porcine pancreatic lipase and 2.5 mg porcine colipase. The reaction was incubated at room temperature for 2 hours.
(§3) Inhibition was determined using a colorimetric (ovine) COX inhibitor screening assay (Cayman Chemicals). The conversion of arachidonic acid to prostaglandin H2 was monitored by a colorimetric reaction. COX was exposed to the inhibitors for 5 minutes. Reaction was initiated by adding 100-μM arachidonic acid and 100-μM tetramethyl-p-phenylenediamine (TMPD—the colourimetric substrate). The optical density of the colored product was determined at 620 nm 5 minutes after initiation. […] PL/C-treated FDC-2-4 was compared with non-PL/C-treated FDC-2-4 and control (no FDC-2-4 added) in determining COX inhibition. Acetylsalicylate (ASA), was used as a positive control in all experiments. Statistical Analysis on all treatment groups were done using ANOVA and Tukey Posthoc tests.

COX-1 = COX-1 (Ovis aries, UniProt P05979); conditions: 0.45 μM, n=3
Protocol: as §1, §2, §3

[1] = system: cholesterol absorption in the intestine; conditions: 20 mg/kg single-dose oral gavage in Intralipid 10% emulsion; blood 10 hours after gavage; FIG. 3
Protocol: Adult male Sprague Dawley rats (˜350 g) were maintained under a 12 h light (0700-1900)/dark cycle and supplied with a laboratory standard diet and water ad libitum prior to starting the experiment.
Both groups received a single-dose oral gavage at 0700. Blood collection was performed by cardiac puncture 10 hours after oral gavage. Animals were fasted after gavage. Access to water was permitted ad libitum during the experiment. Blood obtained by cardiac puncture was collected in EDTA-coated tubes and centrifuged. Plasma samples were analyzed for [3H] cholesterol by radioactivity.
Adult male Sprague Dawley rats were given one of the derivatives of the present invention in an oral formulation containing:
20 mg/kg sterol/stanol analogue
1 mg unlabeled cholesterol
25 μCi [3H] Cholesterol in an emulsion with Intralipid 10%.
Animals were fasted 12-16 hours before and 10 hours after the oral gavage was performed. Blood samples were collected by cardiac puncture 10 hours following oral gavage. Plasma samples obtained by centrifugation were analyzed for [3H] Cholesterol and results expressed as a percentage of inhibition of cholesterol absorption in the intestine.
In addition sodium hydroxide was added to adjust the pH so that the final product pH is 8.0; pH range is 6.0 to 8.9. […] Each animal received 20 mg/kg body weight test substance dissolved in water or other appropriate solvent. […]

[2] = PL/C-treated (pancreatic lipase/colipase)

Chain of COX-2 (P79208 17-603): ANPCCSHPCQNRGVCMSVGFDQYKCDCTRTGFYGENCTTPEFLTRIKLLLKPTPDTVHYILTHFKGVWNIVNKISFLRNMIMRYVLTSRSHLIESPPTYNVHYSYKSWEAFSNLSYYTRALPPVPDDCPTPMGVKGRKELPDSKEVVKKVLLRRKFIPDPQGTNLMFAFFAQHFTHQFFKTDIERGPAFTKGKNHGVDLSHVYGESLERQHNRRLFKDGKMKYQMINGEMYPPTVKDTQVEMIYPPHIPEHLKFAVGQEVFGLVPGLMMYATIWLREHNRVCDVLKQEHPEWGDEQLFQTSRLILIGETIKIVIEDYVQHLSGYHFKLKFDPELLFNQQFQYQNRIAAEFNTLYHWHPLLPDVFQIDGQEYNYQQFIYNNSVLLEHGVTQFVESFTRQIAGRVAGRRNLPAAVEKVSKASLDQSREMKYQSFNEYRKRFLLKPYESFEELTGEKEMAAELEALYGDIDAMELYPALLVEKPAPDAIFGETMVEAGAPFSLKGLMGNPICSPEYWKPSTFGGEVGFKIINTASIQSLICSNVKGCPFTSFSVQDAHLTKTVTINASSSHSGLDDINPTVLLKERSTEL
Chain of COX-1 (P05979 25-600): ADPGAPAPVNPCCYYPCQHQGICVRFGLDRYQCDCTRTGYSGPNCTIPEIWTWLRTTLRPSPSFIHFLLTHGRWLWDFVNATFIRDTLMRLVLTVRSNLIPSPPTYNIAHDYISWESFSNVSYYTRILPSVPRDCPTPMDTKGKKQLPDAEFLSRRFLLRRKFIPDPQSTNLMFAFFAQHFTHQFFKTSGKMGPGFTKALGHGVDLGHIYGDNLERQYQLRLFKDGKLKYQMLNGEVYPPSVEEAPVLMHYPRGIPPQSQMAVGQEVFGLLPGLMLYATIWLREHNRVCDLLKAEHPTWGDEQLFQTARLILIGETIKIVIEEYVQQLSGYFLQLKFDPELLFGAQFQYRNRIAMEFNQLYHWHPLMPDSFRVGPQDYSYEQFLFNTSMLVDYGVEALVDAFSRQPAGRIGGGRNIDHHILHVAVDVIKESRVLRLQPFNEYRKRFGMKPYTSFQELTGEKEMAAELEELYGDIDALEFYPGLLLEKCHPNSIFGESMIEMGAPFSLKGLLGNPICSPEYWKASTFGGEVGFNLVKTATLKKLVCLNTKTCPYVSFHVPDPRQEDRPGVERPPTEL

Substance: acetoxyphytostanyl salicylate [FDC-2-4]
- inhibition of COX-2 (COX-2; [2]): 88%
- inhibition of COX-2 (COX-2; non-PL/C-treated): 64%
- inhibition of COX-1 activity (COX-1; [2]): 69%
- inhibition of COX-1 activity (COX-1; non-PL/C-treated): 20%
- inhibition of cholesterol absorption (plasma [3H] cholesterol) compared with controls and VP4 [1]: significantly outperforms both the controls and VP4
